Assay [1] has as its target Pyruvate dehydrogenase kinase (Homo sapiens, UniProt Q15119+Q15120+Q16654+Q15118). Put plainly: Inhibition of pyruvate dehydrogenase kinase in human PC3 cells incubated for 90 mins by phospho(Ser293)E1alpha MSP ELISA method. The note with it: pc-3. Format: cell-based.
Assay [2] concerns the target [Pyruvate dehydrogenase (acetyl-transferring)] kinase isozyme 1, mitochondrial (Homo sapiens, UniProt Q15118). Put plainly: Binding affinity to pyruvate dehydrogenase kinase 1 (unknown origin) incubated for 90 mins by VER-00160364 probe based fluorescence polarization assay. A general note: Fluorescence polarisation rises when a labelled molecule tumbles more slowly, as on binding a larger partner.

Molecules are shown by their SMILES.

Chain of [Pyruvate dehydrogenase (acetyl-transferring)] kinase isozyme 1, mitochondrial (Q15118 whole entry): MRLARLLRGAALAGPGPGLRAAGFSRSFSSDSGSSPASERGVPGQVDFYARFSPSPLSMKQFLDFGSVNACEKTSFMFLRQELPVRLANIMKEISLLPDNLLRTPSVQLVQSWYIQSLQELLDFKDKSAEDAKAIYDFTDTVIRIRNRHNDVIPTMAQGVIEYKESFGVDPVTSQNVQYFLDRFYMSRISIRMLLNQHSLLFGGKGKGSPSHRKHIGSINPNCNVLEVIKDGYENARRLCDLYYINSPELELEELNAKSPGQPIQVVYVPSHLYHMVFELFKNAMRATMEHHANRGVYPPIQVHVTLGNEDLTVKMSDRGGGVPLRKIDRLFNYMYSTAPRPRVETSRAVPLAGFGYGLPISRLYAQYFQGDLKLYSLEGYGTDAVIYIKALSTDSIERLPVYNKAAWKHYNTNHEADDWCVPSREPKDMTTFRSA

The compound `COc1cnc(Cl)nc1-c1ccc(N(Cc2cnsc2)C(=O)c2ccc(O)cc2O)cc1` yielded an IC50 in assay [1] of 1000 nM.
The same measure, in the same setting: with `Cc1cnc(Cl)nc1-c1ccc(N(Cc2cccc(CN(C)C)c2)C(=O)c2ccc(O)cc2O)cc1` the figure was 1000 nM.
In the case of `CN(C)C(=O)c1ccc(N(Cc2cccc3c2cnn3C)C(=O)c2ccc(O)cc2O)cc1`, the IC50 in assay [2] amounted to 100 nM.
As for `Cc1cc(S(=O)(=O)NCc2cccs2)cnc1-c1ccc(N(Cc2cnsc2)C(=O)c2ccc(O)cc2O)cc1`, the IC50 in assay [1] is 1000 nM.
For `CN(Cc1ccc2nccnc2c1)C(=O)c1ccc(N(Cc2ccsc2)C(=O)c2ccc(O)cc2O)cc1`, the IC50 came to 10 nM in assay [2] and 1000 nM in assay [1].
As to `Cc1cc(C(=O)N(Cc2ccccc2)c2ccc(C(=O)N(C)C)cc2)c(O)cc1O`, the IC50 in assay [1] was 1000 nM.
Consider `COc1cnc(Cl)nc1-c1ccc(N(Cc2cccnc2)C(=O)c2ccc(O)cc2O)cc1`, for which the IC50 stood at 10 nM in assay [2] and 1000 nM in assay [1].
On the same counts, the results for `Cc1cc(S(=O)(=O)NCc2cccs2)cnc1-c1ccc(N(Cc2cccnc2)C(=O)c2ccc(O)cc2O)cc1` are 10 nM and 1000 nM.
For `Cc1cc(S(=O)(=O)NCc2ccccc2)cnc1-c1ccc(N(Cc2cccnc2)C(=O)c2ccc(O)cc2O)cc1` the same measures were 10 nM and 1000 nM.
In assay [2], `O=C(Nc1ccc(N(Cc2ccccc2)C(=O)c2ccc(O)cc2O)cc1)c1ccccc1` gave an IC50 of 1000 nM.
On the same count and under the same terms, with `CC(=O)Nc1ccc(N(Cc2ccccc2)C(=O)c2ccc(O)cc2O)cc1` the figure was 1000 nM; with `O=C(Nc1ccc(N(Cc2ccccc2)C(=O)c2ccc(O)cc2O)cc1)c1cc2ccccc2s1`, 10000 nM.
`COC1CCN(Cc2ccc(CN(C(=O)c3ccc(O)cc3O)c3ccc(-c4nc(Cl)ncc4C)cc3)cc2)C1` (stereo not drawn) yielded a 50% inhibitory concentration (IC50) in assay [1] of 100 nM.
On the same count and under the same terms, in the case of `Cc1cnc(Cl)nc1-c1ccc(N(Cc2cccc(Cl)c2)C(=O)c2ccc(O)cc2O)cc1` it was 100 nM.
`CN(C)C(=O)c1ccc(N(CC2CCCC2)C(=O)c2ccc(O)cc2O)cc1` displayed an IC50 in assay [2] of 100 nM.
In assay [1], `Cc1cc2ccccc2nc1-c1ccc(N(Cc2ccc(OCCN3CCCC3)cc2)C(=O)c2ccc(O)cc2O)cc1` displayed an IC50 of 1000 nM.
In the case of `O=C(Cc1ccccc1)Nc1ccc(N(Cc2ccccc2)C(=O)c2ccc(O)cc2O)cc1`, the IC50 in assay [2] came to 1000 nM.
Same read-out and setting: in the case of `CN(C)C(=O)c1ccc(N(Cc2csc3ccc(Cl)cc23)C(=O)c2cc(Cl)c(O)cc2O)cc1` it was 1000 nM.
On the same count and under the same terms, with `CN(C)C(=O)c1ccc(N(Cc2ccncc2)C(=O)c2cc(Cl)c(O)cc2O)cc1` the figure was 1000 nM.
Consider `Cc1cnc(Cl)nc1-c1ccc(N(Cc2cccc(OCCN3CCOCC3)c2)C(=O)c2ccc(O)cc2O)cc1`, for which, in assay [1], the IC50 was 1000 nM.
Turning to `COc1ccc(CN(C)C(=O)c2ccc(N(Cc3cc(C)no3)C(=O)c3cc(Cl)c(O)cc3O)cc2)cc1`, the results for the IC50 in assay [2] and in assay [1] were 100 nM and 1000 nM, respectively.
As for `CN(C)C(=O)c1ccc(N(Cc2ccn(C)n2)C(=O)c2cc(Cl)c(O)cc2O)cc1`, the IC50 in assay [2] is 10000 nM.
Turning to `Cc1cnc(Cl)nc1-c1ccc(N(Cc2ccc(CN3CCC(F)(F)C3)cc2)C(=O)c2ccc(O)cc2O)cc1`, the IC50 in assay [1] turned out to be 100 nM.
On to `Cc1cc(S(=O)(=O)NCc2cccnc2)cnc1-c1ccc(N(Cc2ccccc2)C(=O)c2cc(Cl)c(O)cc2O)cc1`, for which the IC50 in assay [2] came to 100 nM; in assay [1], 1000 nM.
Take `Cc1cnc(Cl)nc1-c1ccc(N(Cc2ccc(CNC(=O)C3CCC3)cc2)C(=O)c2ccc(O)cc2O)cc1`: the IC50 in assay [1] was 100 nM.
In assay [1], `Cc1cnc(Cl)nc1-c1ccc(N(Cc2cccc(OCCN(C)C)c2)C(=O)c2ccc(O)cc2O)cc1` displayed an IC50 of 1000 nM.
Same read-out and setting: with `CCN(CC)CCOc1ccc(CN(C(=O)c2ccc(O)cc2O)c2ccc(-c3nc4ccccc4cc3C)cc2)cc1` the figure was 1000 nM.
For the compound `Cc1cc(S(=O)(=O)N2CC(F)(F)C2)cnc1-c1ccc(N(Cc2ccccc2)C(=O)c2ccc(O)cc2O)cc1`, the figures for the IC50 in assay [2] and in assay [1] were 100 nM and 10000 nM, respectively.
As to `O=C(NCc1ccccc1)Nc1ccc(N(Cc2ccccc2)C(=O)c2ccc(O)cc2O)cc1`, the IC50 in assay [2] stood at 1000 nM.
Compound `CCc1cnc(C)nc1-c1ccc(N(Cc2ccsc2)C(=O)c2ccc(O)cc2O)cc1` registered an IC50 in assay [1] of 1000 nM.
The same measure, in the same setting: with `Cc1cnc(Cl)nc1-c1ccc(N(Cc2ccc(CNC(=O)[C@H](C)NC(=O)OCc3ccccc3)cc2)C(=O)c2ccc(O)cc2O)cc1` the figure was 100 nM.
As to `COC(=O)c1nc(-c2ccc(N(Cc3ccsc3)C(=O)c3ccc(O)cc3O)cc2)c2ccccc2n1`, the values for the IC50 in assay [2] and in assay [1] were 100 nM and 1000 nM, respectively.
On the same counts, the results for `Cc1cc(S(=O)(=O)N2CCOCC2)cnc1-c1ccc(N(Cc2ccsc2)C(=O)c2ccc(O)cc2O)cc1` are 100 nM and 1000 nM.
As for `Cc1cnc(Cl)nc1-c1ccc(N(Cc2cccc(CN3CCCCC3)c2)C(=O)c2ccc(O)cc2O)cc1`, the IC50 in assay [1] was 1000 nM.
With `O=C(Nc1ccc(N(Cc2ccccc2)C(=O)c2ccc(O)cc2O)cc1)NC1CCNCC1`, in assay [2], the IC50 came out at 10000 nM.
Same read-out and setting: with `CN(C)C(=O)c1ccc(N(CC2CCNCC2)C(=O)c2cc(Cl)c(O)cc2O)cc1` the figure was 100 nM.
In turn, `CN(C)C(=O)c1ccc(N(Cc2ccccn2)C(=O)c2cc(Cl)c(O)cc2O)cc1` had an IC50 in assay [2] of 100 nM.
For `CS(=O)(=O)Nc1ccc(N(Cc2ccccc2)C(=O)c2ccc(O)cc2O)cc1`, in assay [2], the IC50 is 1000 nM.
For the compound `COc1cnc(Cl)nc1-c1ccc(N(Cc2ccccc2)C(=O)c2cc(Cl)c(O)cc2O)cc1`, the IC50 in assay [2] and in assay [1] was 100 nM each time.
For `CN(C)C(=O)c1ccc(N(CCN2CCCCC2)C(=O)c2cc(Cl)c(O)cc2O)cc1`, the IC50 in assay [2] stood at 100 nM.
In assay [2], `Cc1cc(C(=O)Nc2ccc(N(Cc3ccccc3)C(=O)c3ccc(O)cc3O)cc2)no1` had an IC50 of 10000 nM.
Compound `Cc1cc(C(=O)N(Cc2ccccc2)c2ccc(C(=O)N(C)Cc3ccc4nccnc4c3)cc2)c(O)cc1O` returned an IC50 in assay [1] of 1000 nM.
On the same count and under the same terms, with `Cc1cnc(Cl)nc1-c1ccc(N(Cc2ccc(CNC(=O)c3cccs3)cc2)C(=O)c2ccc(O)cc2O)cc1` the figure was 100 nM.
On to `CN(C)C(=O)c1ccc(N(Cc2c[nH]cn2)C(=O)c2cc(Cl)c(O)cc2O)cc1`, for which the IC50 in assay [2] was found to be 1000 nM.
On the same count and under the same terms, with `CN(C)C(=O)c1ccc(N(Cc2nc3ccccc3[nH]2)C(=O)c2cc(Cl)c(O)cc2O)cc1` the figure was 1000 nM.
Consider `Cc1cc(S(=O)(=O)NCc2ccccn2)cnc1-c1ccc(N(Cc2ccsc2)C(=O)c2cc(Cl)c(O)cc2O)cc1`, for which the IC50 in assay [1] came to 1000 nM.
In the case of `Cc1cnc(Cl)nc1-c1ccc(N(Cc2cccnc2)C(=O)c2ccc(O)cc2O)cc1`, the IC50 in assay [2] was determined as 10 nM; in assay [1], 1000 nM.
On the same counts, the results for `CN(Cc1ccc2ccccc2c1)C(=O)c1ccc(N(Cc2cccnc2)C(=O)c2ccc(O)cc2O)cc1` are 10 nM and 1000 nM.
Consider `O=C(Nc1ccc(N(Cc2ccccc2)C(=O)c2ccc(O)cc2O)cc1)c1cc2ccccc2[nH]1`, for which the IC50 in assay [2] worked out at 10000 nM.
On the same count and under the same terms, with `CN(C)C(=O)c1ccc(N(Cc2ccn(C)n2)C(=O)c2ccc(O)cc2O)cc1` the figure was 100 nM; with `CN(C)C(=O)c1ccc(N(CC2CCCC2)C(=O)c2cc(Cl)c(O)cc2O)cc1`, 100 nM.

As a reminder, the IC50 is the concentration that inhibits the measured activity by half. Read a high IC50 as lower potency.

For the origin of these results see ChEMBL document CHEMBL3727364, “Resorcinol n-aryl amide compounds, for use as pyruvate dehydrogenase kinase inhibitors” (2015).
